Results reported in publication PMC2978097, “Inhibiting α-Synuclein Oligomerization by Stable Cell-Penetrating β-Synuclein Fragments Recovers Phenotype of Parkinson's Disease Model Flies” (PLoS ONE, 2010).
Blank lines part the entries; values can stand above or below the compound they belong to. Where a SMILES comes first, the peptide text is derived from it. Where no end group is shown, it is not given here. [ ]: non-standard residue; d: D form.

How the values were obtained:
[1] = target: T1, α-syn monomers (Homo sapiens, UniProt P37840); test: Fluorescence anisotropy titration with α-syn monomers; type: binding; details: fluorescent anisotropy, increasing amounts of α-syn monomers titrated into the peptide solution; Figure S1; read-out: affinity constant (Kd) towards α-syn monomers
T1 construct: made in house; host or cells: E. coli BL21 (pT7-7)
Description: To evaluate the binding of the peptides to α-syn, increasing amounts of α-syn monomers were titrated into a solution of the modified β-syn 36 peptide and anisotropy was determined (Figure S1). The affinity constant was determined to be ∼1 µM.
Supplementary file pone.0013863.s001.tif: Figure S1 The affinity of the modified β-syn 36 containing tryptophan instead of tyrosine towardsα-syn monomers was examined using fluorescent anisotropy. Kd = 1 µM. (0.02 MB TIF) Click here for additional data file.

[2] = In vitro peptide stability in mouse brain homogenate; type: in vitro ADME; details: 20% peptide solution (1 mM in Tris pH 7.6) and 80% of 10% ICR mouse brain homogenate (0.5% Triton X-100), 37°C, two hours; C18 HPLC, UV 280 nm peak area vs sample in Tris buffer; Figure 5
Description: Peptides were dissolved to give a 1 mM solution in […] (pH 7.6). 120 µl of the peptide solution was diluted into a 10% freshly-made homogenate of mouse brain excluding the cerebellum (in 1× Tris buffer and 0.5% Triton X-100). A mixture containing 20% peptide solution and 80% mouse brain homogenate was incubated at 37°C with delicate shaking for two hours. The enzyme reaction was stopped by adding 0.1 M HCl solution, followed by denaturation of the protein using methanol and incubation at 20°C for one hour. The precipitated proteins were centrifuged at 29,000×g for 20 minutes at 4°C and the supernatant containing the peptide was concentrated under vacuum and separated using a C18 HPLC column. The area of the peak (UV absorbance at 280 nm) corresponding to the intact peptide was compared with an equivalent sample incubated in […].
Figure 5 Serum stability of β-syn 36 peptides. Brain extract of wild type ICR white mouse was incubated with the peptides β-syn 36 and retro-inverso β-syn 36 for two hours and loaded on a C18 column for serum stability analysis. (A) Spectra of the β-syn 36 peptide (blue) and β-syn 36 peptide with brain extract (red). […] (C) Quantification of the area under the peak. The area of the peptide in time ‘0’ was determined as 100%. […]

[3] = tested on: PC12 cells; test: Toxicity towards cultured PC12 cells; type: cell-based; details: concentrations up to 1 mM in the growing medium, twenty four hours; data not shown
Description: Our best inhibitor candidate was the β-syn 36 peptide which inhibited both the soluble and insoluble fibrillar aggregates of α-syn.

Kd [1]: 1000 nM
Compound: CC(C)C[C@@H](NC(=O)[C@H](NC(=O)CN)C(C)C)C(=O)N[C@H](Cc1c[nH]c2ccccc12)C(=O)N[C@@H](C(=O)NCC(=O)N[C@H](CO)C(=O)N[C@H](CCCCN)C(=O)N[C@@H](C(=O)N[C@H](CCCNC(=N)N)C(=O)O)[C@H](C)O)C(C)C [Y39W β-syn 36D] (H-G[dV][dL][dW][dV]G[dS][dK][dT][dR]-OH)

stability in mouse brain homogenate (called serum stability) [2]: more stable than the unmodified β-syn 36
Compound: CC(C)C[C@@H](NC(=O)[C@@H](Cc1ccc(O)cc1)NC(=O)[C@H](NC(=O)CNC(=O)[C@@H](CO)NC(=O)[C@@H](CCCCN)NC(=O)[C@H](NC(=O)[C@H](N)CCCNC(=N)N)[C@H](C)O)C(C)C)C(=O)N[C@@H](C(=O)NCC(=O)O)C(C)C [retro-inverso β-syn 36] (H-[dR][dT][dK][dS]G[dV][dY][dL][dV]G-OH)

Compound: GVLYVGSKTR [β-syn 36]
toxicity towards cultured cells (PC12) [3]: no toxicity
